Test results reported in patent publication US8703698B2, “Compositions and methods for treating atherosclerosis” (The University of Chicago, priority 2003, dated 2014).

B1: KEANWKNSDKYFHARGNYDAAQRGPGGVWAAEKISDGREAFQEFFGRGHEDTIADQEAN RHGRSGKDPNYYRPPGLPDKY (protein)
chain: KEANWKNSDKYFHARGNYDAAQRGPGGVWAAEKISDGREAFQEFFGRGHEDTIADQEANRHGRSGKDPNYYRPPGLPDKY
notes: 80-mer cyanogen bromide fragment of murine SAA2.1, residues 24-103
B2: synthetic peptide corresponding to amino acid residues 74-103 of murine SAA2.1 (peptide)
peptide: DTIADQEANRHGRSGKDPNYYRPPGLPDKY
B3: synthetic peptide corresponding to amino acid residues 1-20 of murine SAA2.1 (peptide)
peptide: GFFSFVHEAFQGAGDMWRAY

Legend:
THP-1 cells = assay: Cholesterol efflux from cholesterol-laden human THP-1 cells; format: cell-based; details: for 3H-cholesterol exported into the media after 24 hours (FIG. 19): peptide/lipid mixture by microfluidizer, human THP-1 cells
[1] = system: [3H]-cholesterol-loaded J774 macrophages; assay: In vivo cholesterol efflux to plasma in mice injected with [3H]-cholesterol-loaded J774 macrophages; details: for 3H-cholesterol export into the plasma, dose response (FIGS. 17 and 18): liposome formulated, intravenous, 2, 4, 8, 16 or 32 μg/100 μl per mouse, 6 to 48 hours; for radiolabeled cholesterol exported in the plasma (FIG. 15): non-liposome formulated, in 100 μl PBS, intravenous, 15 μg/mouse peptide or 75 μg/mouse full length protein
Description: In these experiments, in vivo cholesterol export was determined in mice injected with J774 macrophages cholesterol-loaded with RBC membranes and [^3H]-cholesterol. Two hundred thousand macrophages in 100:1 PBS were injected into each mouse through the tail vein. At various time points thereafter, approximately 25:1 of blood were collected from the tail vein of each animal into heparinized capillary tubes. The tubes were then centrifuged for 5 minutes in an Adams Autocrit Centrifuge to separate red blood cells from plasma. Cholesterol efflux was determined by measuring the appearance of [^3H]-cholesterol in plasma by scintillation spectrometry. To study whether export of cholesterol from J774 cells to plasma was influenced by non-liposome formulated D-27mer peptide (SEQ ID NO:10), 24 hours after injection of cholesterol-loaded J774 macrophages into mice, the same animals received, by intravenous injection, 30 μg, 60 μg, 150 μg, 225 μg, 300 μg or 600 μg of D-27mer. All these amounts of D-peptides were dissolved in 100:l of phosphate buffered saline and injected through the tail vein of each animal.
Additional in vivo studies have also been conducted wherein mice were first injected intravenously with [^3H]cholesterol-laden macrophages and then injected 24 hours later with liposomes containing 0.5 μM of synthetic peptides corresponding to amino acid residues 1-20, 21-50, 51-80 or 74-103 of murine SAA2.1. Results from this study are depicted in FIG. 1. At time points indicated in the graph of FIG. 1, approximately 25 μl of blood were collected from the tail vein of each animal. The blood samples were centrifuged to separate the red blood cells from the plasma and the [^3H]-cholesterol in plasma was determined by scintillation counting. Results are mean±SEM of four determinations.
To determine cholesterol export in vivo, J774 macrophages were cholesterol-loaded with red blood cell membranes and [^3H]-cholesterol as described above. Cells were washed four times with PBS/BSA and then detached from the culture dishes. Five million cells in 200 μl DMEM were injected into control mice or inflamed mice through the tail vein. At various time points, approximately 25 μl of blood were collected from the tail vein of each animal into heparinized capillary tubes and then centrifuged for 5 minutes in an Adams Autocrit Centrifuge to separate red blood cells from plasma. Cholesterol efflux was determined by measuring the appearance of [^3H]-cholesterol in plasma by scintillation spectrometry.
J774 cells cultured in 6-well plates were enriched with cholesterol by incubating with red blood cell (RBC) membrane fragments (175:g as cholesterol) that had been previously labeled with 0.5:Ci/ml [^3H]-cholesterol at 37° C. for 24 hours in 0.2% bovine serum albumin (BSA). After loading with the labelled RBC membrane for 6 hours, cells were then washed with phosphate-buffered saline/BSA (PBS/BSA) three times followed by an 18 hour equilibration period during which monolayers were exposed to DMEM/BSA. To determine cholesterol export in vivo, J774 macrophages were cholesterol-loaded with RBC membranes and [^3H]-cholesterol as described previously above. Cells were washed four times with PBS/BSA and then detached from the culture dishes. Two hundred thousand cells in 100:l PBS were injected into mice through the tail vein. At various time points thereafter, approximately 25:l of blood were collected from the tail vein of each animal into heparinized capillary tubes. These tubes were then centrifuged for 5 minutes in an Adams Autocrit Centrifuge to separate red blood cells from plasma. Cholesterol efflux was determined by measuring the appearance of [^3H]-cholesterol in plasma by scintillation spectrometry. […]

NR8383 cells = assay: Cholesterol export from rat NR8383 macrophages; format: cell-based; details: peptide/lipid mixture by microfluidizer
Description: In these experiments, mouse J774 cells, human THP-1 cells and rat NR8383 cells were loaded with red blood cell membranes containing ^3H-cholesterol in accordance with procedures outlined in Example 4. The peptides were prepared as lipid mixtures using a microfluidizer procedure. Briefly, 3 mg of the 20-mer synthetic peptide (SEQ ID NO:30) or the 19-mer synthetic peptide (SEQ ID NO:12) was mixed with 5 ml cyclohexane and sonicated (output power of 14 watts) for 20-seconds followed by a 10-second interval. Separately, 2-oleyl-1-palmitoyl-sn-glycero-3-phosphocholine (Sigma-Aldrich P3017; 67.8 mg) and cholesterol (9.66 mg) were dissolved in 2 ml of chloroform, vortexed and transferred to a 500 ml round bottom flask. The two mixtures (i.e. cyclohexane/peptide and phosphatidylcholine/cholesterol solutions) were then combined. The combined solution was dried using nitrogen gas while swirling the flask, resulting in a thin layer of lipid at the bottom half of the flask. In order to ensure that the thin layer of lipid residue was completely dry, nitrogen gas was streamed over the lipid layer for an additional 10 minutes. […] Efficacy of the peptides was determined as the amount ^3H-cholesterol exported into the media after 24 hours. […]

J774 macrophages = assay: [3H]cholesterol efflux from cholesterol-loaded J774 macrophages in tissue culture; format: cell-based, mouse; details: for 3H-cholesterol exported into the media after 24 hours (FIG. 19): peptide/lipid mixture by microfluidizer
[2] = system: hepatic, macrophage, and pancreatic cholesterol esterase; details: Lindhorst 1997; Ely 2001; Tam 2002; cited from earlier work
[3] = molecular target: T1, acyl CoA:cholesterol acyl transferase (Mus musculus, UniProt Q61263); details: intact murine macrophages and post-nuclear homogenates; Ely et al. 2001; cited from earlier work
T1 construct: The relative activity of acyl CoA:cholesterol acyl transferase was determined in cholesterol-laden cells; host or cells: J774 mouse macrophages, cholesterol-loaded
T1 sequence (Q61263 1-540): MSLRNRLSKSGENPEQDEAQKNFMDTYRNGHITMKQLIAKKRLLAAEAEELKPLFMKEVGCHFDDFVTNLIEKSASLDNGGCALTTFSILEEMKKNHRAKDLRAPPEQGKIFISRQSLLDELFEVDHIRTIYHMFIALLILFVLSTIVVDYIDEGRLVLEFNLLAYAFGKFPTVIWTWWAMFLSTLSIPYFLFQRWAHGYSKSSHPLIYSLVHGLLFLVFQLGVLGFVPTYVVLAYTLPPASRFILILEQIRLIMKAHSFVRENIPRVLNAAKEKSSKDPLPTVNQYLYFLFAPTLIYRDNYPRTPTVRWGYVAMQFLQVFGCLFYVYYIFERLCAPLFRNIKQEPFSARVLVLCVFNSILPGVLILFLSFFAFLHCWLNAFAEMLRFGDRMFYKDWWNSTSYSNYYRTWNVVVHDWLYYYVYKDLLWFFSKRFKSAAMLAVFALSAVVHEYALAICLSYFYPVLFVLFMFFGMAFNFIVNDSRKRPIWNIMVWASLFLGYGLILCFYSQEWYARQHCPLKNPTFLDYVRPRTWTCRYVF

[4] = molecular target: macrophage cholesterol ester hydrolase (murine)
[5] = molecular target: macrophage acyl CoA:cholesterol acyl transferase (murine)

Molecule | 3H-cholesterol exported into the media after 24 hours (FIG. 19) (THP-1 cells) | 3H-cholesterol export into the plasma, dose response (FIGS. 17 and 18) [1] | radiolabeled cholesterol exported in the plasma (FIG. 15) [1] | 3H-cholesterol exported into the media after 24 hours (FIG. 19) (NR8383 cells) | 3H-cholesterol exported into the media after 24 hours (FIG. 19) (J774 macrophages; mouse J774 cells) | also measured
ADQAANEWGRSGKDPNHFR [SEQ ID NO:12, consensus 19-mer, residues 78-96 of human SAA1.1] | equally effective in inducing cholesterol export | increased efficacy as the dose increased | no effect on cholesterol efflux | equally effective in inducing cholesterol export | equally effective in inducing cholesterol export | cholesterol efflux, time course at various concentrations (FIG. 6) (THP-1 cells; liposomal formulations, 0.05 to 5.0 μM): continued to increase over a time period from 0 to 24 hours; cholesterol export enhancing activity, time course (FIG. 9) (J774 macrophages; liposomal formulations, mouse J774 cells): greatest cholesterol export enhancing activity; increase of cholesterol efflux with dose compared to mouse peptide SEQ ID NO:4 (FIGS. 5A and 5B) (J774 macrophages; liposomes, 0.05 to 5.0 μM, macrophages): at least as effective if not more effective
RSFFSFLGEAFDGARDMWRA [SEQ ID NO:30, 20-mer, residues 1-20 of human SAA1.1 or SAA2.1] | equally effective in inducing cholesterol export | increased efficacy as the dose increased | no effect on cholesterol efflux | equally effective in inducing cholesterol export | equally effective in inducing cholesterol export | –
B1 | – | – | – | – | – | cholesterol esterase activities in vitro [2]: effect was shown to reside; macrophage ACAT activity [3]: no inhibitory effect on ACAT activity
B2 | – | – | – | – | – | rate of hydrolysis of [14C]-labeled cholesteryl oleate in J774 cells, re-esterification blocked with Sandoz 58-035 (fold increase) [4]: 3
B3 | – | – | – | – | – | acyl CoA:cholesterol acyl transferase activity (incorporation of [14C]oleate into cholesteryl ester), cholesterol-laden murine cells, liposomes with 0.5 µM peptide, 6 hour incubation (fold decrease) [5]: 2
